Patent US20160262894A1, “TISSUE REPAIR DEVICES AND SCAFFOLDS” (priority 2013, published 2016)

Columns and labels:
[1] = tested on: adenosine A2A knockout (A2AKO) mice; assay: in vivo bone formation by MicroCT in adenosine A2A knockout (A2AKO) mice, coated βTCP-HA scaffolds; settings: 4 weeks post-surgery, CGS21680 10 mM
Description: The remaining scaffold is shown in blue, and the new bone formation is shown in red.

3 mm calvaria defect [2] = settings: murine model of calvarial bone regeneration; background statement; cited from earlier work
3 mm calvaria defect [3] = settings: application at the site of the bone defect
Description: In vivo testing in mice: The 3-D scaffolds will be evaluated in a murine model using a 3 mm calvaria defect model.

CCNC(=O)[C@H]1O[C@@H](n2cnc3c(N)nc(NCCc4ccc(CCC(=O)O)cc4)nc32)[C@H](O)[C@@H]1O [CGS21680]
resorption of scaffolds ([1]; compared with dipyridamole-coated scaffolds): greater

OCCN(CCO)c1nc(N2CCCCC2)c2nc(N(CCO)CCO)nc(N3CCCCC3)c2n1 [dipyridamole]
new bone formation ([1]; collagen-coated βTCP-HA scaffolds, Dipyridamole 100 μM): did not differ from that induced in saline- or CGS21680-coated surfaces | bone regeneration (3 mm calvaria defect [2]): exponentially stimulates bone regeneration | new bone growth at the site of a bone defect (3 mm calvaria defect [3]): promotes new bone growth
